The text below walks through data of patent US20260226073A1 (AURIGENE ONCOLOGY LIMITED, priority 2023, published 2026).

The target in this test is T1, human recombinant CBL-b (human Biotin CBL-b recombinant protein a.a. 39-426) (Homo sapiens, UniProt Q13191).
T1 construct: human Biotin CBL-b recombinant protein a.a; 39-426; Biotin (biotinylated); made in house
T1 sequence (Q13191 39-426): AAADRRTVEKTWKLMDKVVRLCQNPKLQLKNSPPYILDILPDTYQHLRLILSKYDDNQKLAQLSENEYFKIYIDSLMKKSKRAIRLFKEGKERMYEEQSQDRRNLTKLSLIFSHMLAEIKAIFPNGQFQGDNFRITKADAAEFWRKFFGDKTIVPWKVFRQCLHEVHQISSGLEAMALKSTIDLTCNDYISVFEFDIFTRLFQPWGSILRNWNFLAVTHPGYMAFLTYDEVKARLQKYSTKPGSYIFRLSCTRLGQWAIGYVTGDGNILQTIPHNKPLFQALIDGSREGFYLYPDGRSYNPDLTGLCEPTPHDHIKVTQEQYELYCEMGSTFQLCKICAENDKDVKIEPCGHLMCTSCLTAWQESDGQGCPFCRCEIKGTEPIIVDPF
Put plainly: Biochemical assay for CBL-b inhibition (ligand displacement TR-FRET). The class given is binding. The note with it: 50 nM CBL-b, 0.3 μM Bodipy FL-Probe, read-out: IC50 (CBL-b inhibition, group). How it is done:
The inhibitory activity of the test compounds was assessed by Ligand displacement TR-FRET assay. The human recombinant CBL-b (human Biotin CBL-b recombinant protein a.a. 39-426; synthesised in-house) was diluted in enzyme assay buffer (20 mM HEPES, 150 mM NaCl, 0.01% Triton X, 0.01% BSA, 0.5 mM TCEP) in a 10 μl volume and plated in 384-well plates (Cat #781075, Greiner) to a final concentration of 50 nM. The enzyme/compound mixture was incubated at RT for 60 min. The Bodipy FL-Probe described in WO 2020/210508 (synthesized in-house) diluted in enzyme assay buffer was added to the plate and incubated for 60 min RT, the final probe concentration was 0.3 μM. After 60 min incubation, 10 μl of detection mix (Terbium Streptavidin, (Cat #PV3576, Invitrogen) diluted in 1× Lance buffer) was added and incubated for 60 min at room temperature. Time-resolved fluorescence (excitation, 320 nm; emission donor, 615 nm; emission acceptor, 665 nm) was monitored by using 2030 multilabel reader Victor5 (PerkinElmer). The IC50 (concentration for half maximal inhibition) and % maximum inhibition of the compounds were estimated by fitting the dose response data to a sigmoidal curve fitting equation using Graph pad Prism software V. 8.
For orientation: TR-FRET usually uses a lanthanide donor and a delayed reading to cut background.
Consider `C[C@H]1CCCN(Cc2cc(Cl)nc(N3Cc4ccc(CCc5nncn5C)cc4C3=O)c2)C1` [Compound 154], for which the IC50 (as a rule, the point on the concentration scale where inhibition reaches its midpoint) was in the range of 80 to 300 nM.
Consider `C[C@@H]1CN(Cc2cc(N3Cc4ccc(C5(Cc6nncn6C)COC5)cc4C3=O)nc(C(F)(F)F)c2)CCN1` [Compound 96, (R)-6-(3-((4-Methyl-4H-1,2,4-triazol-3-yl)methyl)oxetan-3-yl)-2-(4-((3-methylpiperazin-1-yl)methyl)-6-(trifluoromethyl)pyridin-2-yl)isoindolin-1-one], for which the 50% inhibitory concentration (IC50) lay in the range of 300 to 5000 nM.
The figure for `CC1CCNC(c2cc(Cl)nc(N3Cc4ccc(C5(Cc6nncn6C)COC5)cc4C3=O)c2)C1` (centres unmarked) [Compound 249] is 300 to 5000 nM.
The figure for `Cc1cc(CNC(C)(C)C)cc(N2Cc3ccc(-c4ccc(F)cc4-c4nncn4C)cc3C2=O)n1` [Compound 299] is 300 to 5000 nM; for `C[C@H](NCc1ccccn1)c1cc(Cl)nc(N2Cc3ccc(C4(Cc5nncn5C)COC4)cc3C2=O)c1` (single isomer, unassigned) [Compound 242] it is 80 to 300 nM.
The figure for `CCN(CC)Cc1cc(Cl)nc(N2Cc3ccc(C4(Cc5nncn5C)COC4)cc3C2=O)c1` [Compound 79, 2-(6-Chloro-4-((diethylamino)methyl)pyridin-2-yl)-6-(3-((4-methyl-4H-1,2,4-triazol-3-yl)methyl)oxetan-3-yl)isoindolin-1-one] is 300 to 5000 nM; for `Cn1cnnc1CC1(c2ccc3c(c2)C(=O)N(c2cc(CN4CCC5(CCCO5)CC4)cc(C(F)(F)F)n2)C3)COC1` [Compound 32, 2-(4-((1-Oxa-8-azaspiro[4.5]decan-8-yl)methyl)-6-(trifluoromethyl)pyridin-2-yl)-6-(3-((4-methyl-4H-1,2,4-triazol-3-yl)methyl)oxetan-3-yl)isoindolin-1-one] it is 300 to 5000 nM; for `Cn1cnnc1CC1(c2ccc3c(c2)C(=O)N(c2cc(CNCCOCCOCCOCCN)cc(Cl)n2)C3)COC1` [Compound 99, 2-(4-(13-Amino-5,8,11-trioxa-2-azatridecyl)-6-chloropyridin-2-yl)-6-(3-((4-methyl-4H-1,2,4-triazol-3-yl)methyl)oxetan-3-yl)isoindolin-1-one] it is 300 to 5000 nM.
`Cn1cnnc1CC1(c2ccc3c(c2)C(=O)N(c2cc(CNCc4nccs4)cc(Cl)n2)C3)COC1` [Compound 194]: the IC50 lay within 80 to 300 nM.
Take `Cc1cc(CNS(C)(=O)=O)cc(N2Cc3ccc(-c4ccc(F)cc4-c4nncn4C)cc3C2=O)n1` [Compound 283]: the IC50 was 80 to 300 nM.
The figure for `Cc1cc(CN2CCC3(CCC3)C2)cc(N2Cc3ccc(-c4ccc(F)cc4-c4nncn4C)cc3C2=O)n1` [Compound 258] is less than 80 nM; for `Cc1cc(CNCC2(C)COC2)cc(N2Cc3ccc(-c4ccc(F)cc4-c4nncn4C)cc3C2=O)n1` [Compound 292] it is 80 to 300 nM.
The figure for `Cc1cc(CNCC2(O)COC2)cc(N2Cc3ccc(-c4ccc(F)cc4-c4nncn4C)cc3C2=O)n1` [Compound 291] is 80 to 300 nM; for `CC1CCC(C)N(Cc2cc(N3Cc4ccc(C5(Cc6nncn6C)COC5)cc4C3=O)nc(C(F)(F)F)c2)C1` (single isomer, unassigned) [Compound 141] it is less than 80 nM.
The figure for `CCNCCc1cc(N2Cc3ccc(C4(Cc5nncn5C)COC4)cc3C2=O)cc(C(F)(F)F)c1` [Compound 75, 2-(3-(2-(Ethylamino)ethyl)-5-(trifluoromethyl)phenyl)-6-(3-((4-methyl-4H-1,2,4-triazol-3-yl)methyl)oxetan-3-yl)isoindolin-1-one] is 300 to 5000 nM; for `Cn1cnnc1CC1(c2ccc3c(c2)C(=O)N(c2cc(CN4CCCC(O)CC4)cc(Cl)n2)C3)COC1` (centres unmarked) [Compound 174] it is 80 to 300 nM; for `COCCN(Cc1cc(C)nc(N2Cc3ccc(-c4ccc(F)cc4-c4nncn4C)cc3C2=O)c1)CC1CC1` [Compound 313] it is 300 to 5000 nM.
For `Cc1cc(CNCCO)cc(N2Cc3ccc(-c4ccc(F)cc4-c4nncn4C)cc3C2=O)n1` [Compound 301], the IC50 was in the range of 80 to 300 nM.
Regarding `C[C@H]1CCCN(Cc2cc(Cl)nc(N3Cc4ccc(C(Cc5nncn5C)C5CCC5)cc4C3=O)c2)C1` (some centres unmarked) [Compound 173], the concentration for half-maximal inhibition (IC50) lay within 300 to 5000 nM.
The figure for `Cn1cnnc1CC1(c2ccc3c(c2)C(=O)N(c2cc(CN4CCC(C)(F)C4)cc(Cl)n2)C3)COC1` (centres unmarked) [Compound 184] is 80 to 300 nM.
On to `Cn1cnnc1CC1(c2ccc3c(c2)C(=O)N(c2cc(CN4CCC(O)CC4)cc(C(F)(F)F)n2)C3)COC1` [Compound 43, 2-(4-((4-Hydroxypiperidin-1-yl)methyl)-6-(trifluoromethyl)pyridin-2-yl)-6-(3-((4-methyl-4H-1,2,4-triazol-3-yl)methyl)oxetan-3-yl)isoindolin-1-one], for which the half-maximal inhibitory concentration (IC50) was 300 to 5000 nM.
Consider `CN1CCC/C(=C/c2cc(Cl)nc(N3Cc4ccc(C5(Cc6nncn6C)COC5)cc4C3=O)c2)C1` [Compound 335, (Z)-2-(6-Chloro-4-((1-methylpiperidin-3-ylidene)methyl)pyridin-2-yl)-6-(3-((4-methyl-4H-1,2,4-triazol-3-yl)methyl)oxetan-3-yl)isoindolin-1-one], for which the IC50 was 80 to 300 nM.
The figure for `Cc1cc(CN)cc(N2Cc3ccc(-c4ccc(F)cc4-c4nncn4C)cc3C2=O)n1` [Compound 331, 2-(4-(Aminomethyl)-6-methylpyridin-2-yl)-6-(4-fluoro-2-(4-methyl-4H-1,2,4triazol-3-yl)phenyl)isoindolin-1-one] is 80 to 300 nM; for `Cn1cnnc1CC1(c2ccc3c(c2)C(=O)N(c2cc(CNC45CC(C4)C5)cc(Cl)n2)C3)COC1` [Compound 235] it is 80 to 300 nM; for `Cn1ccc(CNCc2cc(Cl)nc(N3Cc4ccc(C5(Cc6nncn6C)COC5)cc4C3=O)c2)n1` [Compound 212] it is 300 to 5000 nM.
The figure for `C[C@H]1CCCN(Cc2cc(N3CCCC3)cc(N3Cc4ccc(C5(Cc6nncn6C)COC5)cc4C3=O)c2)C1` [Compound 21, (S)-6-(3-((4-Methyl-4H-1,2,4-triazol-3-yl)methyl)oxetan-3-yl)-2-(3-((3-methyl-piperidin-1-yl)methyl)-5-(pyrrolidin-1-yl)phenyl)isoindolin-1-one] is 300 to 5000 nM; for `CC(C)C(Cc1nncn1C)c1ccc2c(c1)C(=O)N(c1cc(CN3CCC[C@H](C)C3)cc(Cl)n1)C2` (some centres unmarked) [Compound 165] it is 300 to 5000 nM.
The figure for `CCN1CCc2c(cc(N3Cc4ccc(C5(Cc6nncn6C)COC5)cc4C3=O)cc2C(F)(F)F)C1` [Compound 77, 2-(2-Ethyl-5-(trifluoromethyl)-1,2,3,4-tetrahydroisoquinolin-7-yl)-6-(3-((4-methyl-4H-1,2,4-triazol-3-yl)methyl)oxetan-3-yl)isoindolin-1-one] is 300 to 5000 nM; for `Cc1cc(CNCC2CC2)cc(N2Cc3ccc(-c4ccc(F)c(F)c4-c4nncn4C)cc3C2=O)n1` [Compound 257] it is 300 to 5000 nM.
On to `CO[C@H]1CCN(Cc2cc(C)nc(N3Cc4ccc(-c5ccc(F)cc5-c5nncn5C)cc4C3=O)c2)C1` [Compound 290], for which the half-inhibitory concentration (IC50) was 300 to 5000 nM.
The figure for `Cc1nc(CNCc2cc(Cl)nc(N3Cc4ccc(C5(Cc6nncn6C)COC5)cc4C3=O)c2)cs1` [Compound 129, 2-(6-Chloro-4-((((2-methylthiazol-4-yl)methyl)amino)methyl)-pyridin-2-yl)-6-(3-((4-methyl-4H-1,2,4-triazol-3-yl)methyl)oxetan-3-yl)isoindolin-1-one] is 80 to 300 nM.
The figure for `C[C@H]1CCCN(Cc2cc(N3Cc4ccc(C5(Cc6nncn6C)COC5)cc4C3=O)nc(C(F)(F)F)c2)[C@H]1C` [Compound 138] is 300 to 5000 nM.
